In PMC8448983 (European journal of medicinal chemistry, 2021):

How the values were obtained:
[1] = tested on: human blood platelets; experiment: Formation of thrombus on collagen in flow conditions; type: cell-based; details: whole blood perfused over collagen; 50 μM compound; n = 9
[2] = biological target: T1, human A2A adenosine receptor (Homo sapiens, UniProt P29274); details: 50 μM compound; Fig. 1
[3] = tested on: human blood platelets; experiment: Aggregation of blood platelets in whole blood; details: for effect on ADP-induced platelet aggregation in whole blood: ADP, 10, 30, 50 μM compound, n = 13; for effect on arachidonic acid-induced platelet aggregation in whole blood: data not shown; for effect on collagen-induced platelet aggregation in whole blood: collagen 1 μg/mL
[4] = tested on: human blood platelets; experiment: ADP-induced platelet aggregation in platelet-rich plasma; type: cell-based; details: 10 μM ADP, mean ± SD, n = 6–9
[5] = biological target: T2, human A2B adenosine receptor (Homo sapiens, UniProt P29275); details: read-out: Ki, A2B AR; USEF; HEK-A2B membranes; 25 nM [3H]-DPCPX
T2 sequence (P29275 1-332): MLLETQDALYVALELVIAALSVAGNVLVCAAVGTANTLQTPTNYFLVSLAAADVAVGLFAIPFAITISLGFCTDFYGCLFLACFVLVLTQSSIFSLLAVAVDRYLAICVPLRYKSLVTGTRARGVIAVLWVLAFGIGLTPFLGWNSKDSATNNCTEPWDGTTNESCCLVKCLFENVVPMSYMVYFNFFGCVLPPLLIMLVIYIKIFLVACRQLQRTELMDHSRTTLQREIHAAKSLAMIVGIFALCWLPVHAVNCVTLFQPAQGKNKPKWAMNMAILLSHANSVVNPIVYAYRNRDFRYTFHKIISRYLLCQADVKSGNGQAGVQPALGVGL

[6] = biological target: T3, human A3 adenosine receptor (Homo sapiens, UniProt P0DMS8); details: read-out: Ki, A3 AR; USEF; HeLa-A3 membranes; 10 nM [3H]-NECA
T3 sequence (P0DMS8 1-318): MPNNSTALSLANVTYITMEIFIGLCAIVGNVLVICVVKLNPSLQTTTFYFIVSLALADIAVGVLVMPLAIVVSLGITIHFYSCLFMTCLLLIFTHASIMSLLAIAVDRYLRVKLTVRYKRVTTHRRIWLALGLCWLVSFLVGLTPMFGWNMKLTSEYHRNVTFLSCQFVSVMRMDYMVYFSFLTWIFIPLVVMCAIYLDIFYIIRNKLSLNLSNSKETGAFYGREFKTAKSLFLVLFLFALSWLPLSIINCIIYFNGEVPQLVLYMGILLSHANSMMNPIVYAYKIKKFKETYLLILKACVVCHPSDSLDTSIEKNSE

[7] = biological target: T4, human A1 adenosine receptor (Homo sapiens, UniProt P30542); experiment: biochemical
T4 sequence (P30542 1-326): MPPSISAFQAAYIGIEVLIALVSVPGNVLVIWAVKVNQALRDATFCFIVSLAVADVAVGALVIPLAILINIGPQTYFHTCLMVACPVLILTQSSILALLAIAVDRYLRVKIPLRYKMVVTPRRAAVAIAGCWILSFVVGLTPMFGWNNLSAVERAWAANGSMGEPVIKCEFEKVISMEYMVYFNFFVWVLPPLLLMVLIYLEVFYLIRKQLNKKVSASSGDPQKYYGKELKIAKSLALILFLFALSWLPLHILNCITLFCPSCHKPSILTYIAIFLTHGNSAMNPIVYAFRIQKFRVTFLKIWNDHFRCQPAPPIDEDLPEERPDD

[8] = biological target: T1, human A2A adenosine receptor; experiment: biochemical
[9] = biological target: A3 receptor; details: read-out: experimental Ki, A3 AR; ref PubChem CID 9958472; cited from earlier work

T1 sequence (P29274 whole entry): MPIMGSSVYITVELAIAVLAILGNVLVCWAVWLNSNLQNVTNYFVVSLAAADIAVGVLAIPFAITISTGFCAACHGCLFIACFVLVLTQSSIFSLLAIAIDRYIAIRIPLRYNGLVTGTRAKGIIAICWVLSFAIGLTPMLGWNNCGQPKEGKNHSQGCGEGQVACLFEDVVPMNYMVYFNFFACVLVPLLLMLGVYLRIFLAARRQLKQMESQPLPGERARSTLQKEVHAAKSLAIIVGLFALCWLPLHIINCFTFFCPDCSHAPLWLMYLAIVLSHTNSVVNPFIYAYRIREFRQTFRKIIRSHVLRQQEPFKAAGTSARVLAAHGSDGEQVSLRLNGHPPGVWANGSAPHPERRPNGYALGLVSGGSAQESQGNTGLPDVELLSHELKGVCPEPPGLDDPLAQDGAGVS

| radioligand displacement at A2A receptor [2] | Ki [7] [µM] | IC50 [8] [µM] | Compound | effect on thrombus formation on collagen under flow [1] | effect on ADP-induced platelet aggregation in whole blood [3] | effect on arachidonic acid-induced platelet aggregation in whole blood [3] | effect on collagen-induced platelet aggregation in whole blood [3] | area under the aggregation curve, ADP-induced platelet aggregation ([4]; 10 μM compound) [arbitrary units] | area under the aggregation curve, ADP-induced platelet aggregation ([4]; 50 μM compound) [arbitrary units] | Ki [5] [µM] | Ki [6] [µM] | Ki [9] [µM] |
| --- | --- | --- | --- | --- | --- | --- | --- | --- | --- | --- | --- | --- |
| at least 50% |  |  | OC[C@H]1O[C@@H](n2cnc3c(NCCCc4ccccc4)ncnc32)[C@H](O)[C@@H]1O [Compound 40, N^6-(3-phenylpropyl)adenosine] | smaller than the thrombi in the untreated samples | significantly decreased | did not inhibit | did not inhibit |  |  |  |  |  |
|  |  |  | 5′-ethylcarbamoyl-N^6-(3-phenylpropyl)adenosine [Compound 18] | did not exert an inhibitory effect | significantly inhibited | no effect | significantly inhibited | 630.0 ± 80.3 | 336.8 ± 108.5 | 1.38 | 0.0045 |  |
| at least 50% | 3.34 | 22 ± 4.4 | OC[C@H]1O[C@@H](n2cnc3c(NCCCc4ccccc4)nc(Cl)nc32)[C@H](O)[C@@H]1O [Compound 24, 6-N-(3-phenylpropyl)-2-chloroadenosine] |  |  |  |  |  |  |  |  |  |
|  |  |  | CNC(=O)[C@H]1O[C@@H](n2cnc3c(NCc4ccc(N)c(I)c4)ncnc32)[C@H](O)[C@@H]1O [I-AB-MECA] |  |  |  |  |  |  |  |  | 0.0012 to 0.0021 |
